# Measurements as given in ChEMBL document CHEMBL4630908 (2021).
# Activity calls are given as the source filed them. No cut-off for these calls is given here.
# Experiments:
# D(2) dopamine receptor = D(2) dopamine receptor (Homo sapiens, UniProt P14416); conditions: Compound concentration 10.0 uM
# [1] = biological target: Bromodomain-containing protein 9 (Homo sapiens, UniProt Q9H8M2); assay: BRD9 DiscoverX BROMOscan
# C-C motif chemokine 2 = C-C motif chemokine 2 (Homo sapiens, UniProt P13500); assay: In vitro inhibition of MCP-1 in Lipopolysaccharide-stimulated human whole blood; assay type: tissue-based
# Chain of C-C motif chemokine 2 (P13500 whole entry, the tested form may be a part): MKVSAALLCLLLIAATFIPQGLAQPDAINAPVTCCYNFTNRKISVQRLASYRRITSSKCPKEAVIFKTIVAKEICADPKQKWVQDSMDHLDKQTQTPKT
# [2] = biological target: ATPase family AAA domain-containing protein 2 (Homo sapiens, UniProt Q6PL18); assay: ATAD2A DiscoverX BROMOscan
# [3] = biological target: 5-hydroxytryptamine receptor 7 (Homo sapiens) (UniProt P34969); conditions: Compound concentration 10.0 uM
# [4] = biological target: T1, Bromodomain-containing protein 2 (Homo sapiens, UniProt P25440); assay: BRD2(1) DiscoverX BROMOscan
# Target sequence in this assay (P25440 whole entry): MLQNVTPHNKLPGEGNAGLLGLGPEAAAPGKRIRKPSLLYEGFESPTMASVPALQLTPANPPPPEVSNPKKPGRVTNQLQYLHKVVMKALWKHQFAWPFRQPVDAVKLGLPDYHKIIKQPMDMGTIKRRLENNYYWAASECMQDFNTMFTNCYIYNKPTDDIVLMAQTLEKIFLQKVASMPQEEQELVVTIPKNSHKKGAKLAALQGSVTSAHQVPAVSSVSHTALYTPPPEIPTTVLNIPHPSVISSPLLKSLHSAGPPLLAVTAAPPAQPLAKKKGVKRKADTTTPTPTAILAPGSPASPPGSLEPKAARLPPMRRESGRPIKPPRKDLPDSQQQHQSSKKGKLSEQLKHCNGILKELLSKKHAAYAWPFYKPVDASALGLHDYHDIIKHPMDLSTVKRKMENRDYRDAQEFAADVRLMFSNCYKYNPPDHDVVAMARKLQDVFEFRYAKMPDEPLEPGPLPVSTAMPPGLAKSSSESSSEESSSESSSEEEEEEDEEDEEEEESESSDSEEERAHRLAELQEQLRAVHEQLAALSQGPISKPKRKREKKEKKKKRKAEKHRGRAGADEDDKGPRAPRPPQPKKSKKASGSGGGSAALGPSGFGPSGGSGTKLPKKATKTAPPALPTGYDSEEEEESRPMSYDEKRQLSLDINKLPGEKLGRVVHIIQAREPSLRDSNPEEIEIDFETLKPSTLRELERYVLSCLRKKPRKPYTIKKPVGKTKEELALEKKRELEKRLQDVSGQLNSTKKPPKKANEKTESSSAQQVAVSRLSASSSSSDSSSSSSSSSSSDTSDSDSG
# [5] = biological target: 5-hydroxytryptamine receptor 1D (Homo sapiens, UniProt P28221); assay: GPCRScan assay: inhibition of 5-HT1D; set-up: radioligand conc. used [nm] 1.0 – 2.0, parental cells HEKT
# Chain of 5-hydroxytryptamine receptor 1D (P28221 whole entry): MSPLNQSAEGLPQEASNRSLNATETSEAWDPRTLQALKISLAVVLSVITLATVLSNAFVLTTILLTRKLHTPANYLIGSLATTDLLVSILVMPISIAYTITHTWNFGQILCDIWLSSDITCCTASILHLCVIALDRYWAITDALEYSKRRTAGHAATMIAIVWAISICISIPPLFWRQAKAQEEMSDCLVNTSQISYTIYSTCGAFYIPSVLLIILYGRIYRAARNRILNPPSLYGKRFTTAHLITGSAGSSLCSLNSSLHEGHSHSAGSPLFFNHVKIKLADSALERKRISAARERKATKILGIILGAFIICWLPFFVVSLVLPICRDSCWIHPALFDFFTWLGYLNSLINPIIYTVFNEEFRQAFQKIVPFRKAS
# [6] = biological target: Histamine H4 receptor (Homo sapiens) (UniProt Q9H3N8); conditions: Compound concentration 10.0 uM
# Chain of Histamine H4 receptor (Homo sapiens) (Q9H3N8 whole entry): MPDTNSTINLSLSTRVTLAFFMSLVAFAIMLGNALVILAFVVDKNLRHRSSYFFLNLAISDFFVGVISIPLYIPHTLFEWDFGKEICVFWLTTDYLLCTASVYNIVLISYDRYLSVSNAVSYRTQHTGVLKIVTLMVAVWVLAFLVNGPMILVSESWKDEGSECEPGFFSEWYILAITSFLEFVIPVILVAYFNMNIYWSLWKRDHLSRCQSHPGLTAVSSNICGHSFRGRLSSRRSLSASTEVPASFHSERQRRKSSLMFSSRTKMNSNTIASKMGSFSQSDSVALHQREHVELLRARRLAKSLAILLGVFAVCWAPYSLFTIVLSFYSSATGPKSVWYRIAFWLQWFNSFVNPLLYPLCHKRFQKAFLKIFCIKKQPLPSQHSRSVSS
# [7] = biological target: Alpha-2B adrenergic receptor (Homo sapiens) (UniProt P18089); conditions: Compound concentration 10.0 uM
# Chain of Alpha-2B adrenergic receptor (Homo sapiens) (P18089 whole entry): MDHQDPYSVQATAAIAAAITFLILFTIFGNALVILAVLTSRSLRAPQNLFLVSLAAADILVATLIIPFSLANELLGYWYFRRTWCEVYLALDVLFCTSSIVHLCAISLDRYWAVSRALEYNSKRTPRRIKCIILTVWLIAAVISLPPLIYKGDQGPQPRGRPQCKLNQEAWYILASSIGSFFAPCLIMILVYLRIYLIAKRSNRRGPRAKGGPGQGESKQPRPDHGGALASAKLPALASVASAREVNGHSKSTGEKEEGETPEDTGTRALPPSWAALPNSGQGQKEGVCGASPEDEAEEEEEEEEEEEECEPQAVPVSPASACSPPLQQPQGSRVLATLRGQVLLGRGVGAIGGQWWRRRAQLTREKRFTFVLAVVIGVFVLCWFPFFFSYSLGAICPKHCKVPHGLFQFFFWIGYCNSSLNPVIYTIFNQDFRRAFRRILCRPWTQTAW
# [8] = biological target: SWI/SNF-related matrix-associated actin-dependent regulator of chromatin subfamily A member 4 (Homo sapiens, UniProt P51532); assay: SMARCA4 DiscoverX BROMOscan
# [9] = biological target: T2, Bromodomain testis-specific protein (Homo sapiens, UniProt Q58F21); assay: BRDT(2) DiscoverX BROMOscan
# [10] = biological target: D(3) dopamine receptor (Homo sapiens) (UniProt P35462); conditions: Compound concentration 10.0 uM
# Chain of D(3) dopamine receptor (Homo sapiens) (P35462 whole entry): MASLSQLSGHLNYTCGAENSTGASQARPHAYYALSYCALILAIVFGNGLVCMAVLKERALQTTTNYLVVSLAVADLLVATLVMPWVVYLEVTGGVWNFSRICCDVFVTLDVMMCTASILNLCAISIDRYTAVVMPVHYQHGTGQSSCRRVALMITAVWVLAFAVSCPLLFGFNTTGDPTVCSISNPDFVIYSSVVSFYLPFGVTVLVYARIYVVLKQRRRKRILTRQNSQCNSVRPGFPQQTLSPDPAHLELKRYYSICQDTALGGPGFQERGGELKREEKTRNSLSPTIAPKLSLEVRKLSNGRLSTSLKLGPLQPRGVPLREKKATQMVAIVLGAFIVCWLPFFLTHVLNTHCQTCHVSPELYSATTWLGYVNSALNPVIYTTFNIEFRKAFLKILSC
# [11] = biological target: Histone acetyltransferase KAT2A (Homo sapiens, UniProt Q92830); assay: GCN5L2 DiscoverX BROMOscan
# [12] = biological target: T2, Bromodomain testis-specific protein; assay: BRDT(1,2) DiscoverX BROMOscan
# [13] = biological target: Bromodomain-containing protein 8 (Homo sapiens, UniProt Q9H0E9); assay: BRD8(2) DiscoverX BROMOscan
# [14] = biological target: Bromodomain adjacent to zinc finger domain protein 2B (Homo sapiens, UniProt Q9UIF8); assay: BAZ2B DiscoverX BROMOscan
# [15] = biological target: T1, Bromodomain-containing protein 2; assay: BET mutant TR-FRET assay (BRD2 BD1)
# Target sequence in this assay (P25440 whole entry, looked up, change not shown): as the sequence (P25440 whole entry) above
# [16] = biological target: T3, Bromodomain-containing protein 3 (Homo sapiens, UniProt Q15059); assay: BRD3(1,2) DiscoverX BROMOscan
# T3 sequence (Q15059 whole entry): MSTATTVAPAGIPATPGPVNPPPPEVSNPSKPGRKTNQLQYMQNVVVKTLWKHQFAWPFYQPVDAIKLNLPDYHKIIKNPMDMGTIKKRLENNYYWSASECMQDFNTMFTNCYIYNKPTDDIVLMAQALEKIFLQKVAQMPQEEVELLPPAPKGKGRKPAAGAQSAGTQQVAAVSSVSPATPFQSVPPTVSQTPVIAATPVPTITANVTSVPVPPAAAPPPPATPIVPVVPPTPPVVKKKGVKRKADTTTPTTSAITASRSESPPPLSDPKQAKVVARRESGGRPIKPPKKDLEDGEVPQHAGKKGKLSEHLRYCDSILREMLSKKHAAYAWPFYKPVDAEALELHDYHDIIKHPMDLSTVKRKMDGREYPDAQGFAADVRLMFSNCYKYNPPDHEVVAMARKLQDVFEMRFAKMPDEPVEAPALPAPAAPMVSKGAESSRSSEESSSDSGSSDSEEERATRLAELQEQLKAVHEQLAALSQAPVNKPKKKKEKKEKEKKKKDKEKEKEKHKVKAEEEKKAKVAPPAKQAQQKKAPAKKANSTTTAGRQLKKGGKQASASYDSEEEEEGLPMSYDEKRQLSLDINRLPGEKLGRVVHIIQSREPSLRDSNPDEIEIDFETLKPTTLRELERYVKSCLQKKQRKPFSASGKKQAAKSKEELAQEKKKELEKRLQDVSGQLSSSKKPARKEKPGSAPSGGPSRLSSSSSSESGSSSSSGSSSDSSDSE
# [17] = biological target: Voltage-gated potassium channel, IKs; KCNQ1(Kv7.1)/KCNE1(MinK) (Homo sapiens, UniProt P15382+P51787); assay: (§1) Cross screening panel; assay type: protein-complex assay
# [18] = biological target: GABA-A receptor; anion channel; assay: as §1; assay type: protein-complex assay
# D(1A) dopamine receptor = D(1A) dopamine receptor (Homo sapiens, UniProt P21728); conditions: Compound concentration 10.0 uM
# Chain of D(1A) dopamine receptor (P21728 whole entry): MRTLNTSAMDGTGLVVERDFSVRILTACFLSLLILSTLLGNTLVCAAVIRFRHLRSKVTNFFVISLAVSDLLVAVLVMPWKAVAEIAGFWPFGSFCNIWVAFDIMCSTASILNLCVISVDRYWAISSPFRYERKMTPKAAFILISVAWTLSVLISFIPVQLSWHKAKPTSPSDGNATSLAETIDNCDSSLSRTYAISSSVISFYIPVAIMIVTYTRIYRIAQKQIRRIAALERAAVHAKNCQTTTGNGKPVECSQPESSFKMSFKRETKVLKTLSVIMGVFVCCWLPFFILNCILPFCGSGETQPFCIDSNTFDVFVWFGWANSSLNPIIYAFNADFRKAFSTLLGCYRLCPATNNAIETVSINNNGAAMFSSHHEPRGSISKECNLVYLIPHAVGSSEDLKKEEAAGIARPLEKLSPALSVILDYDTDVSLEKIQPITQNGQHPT
# [19] = biological target: 5-hydroxytryptamine receptor 2A (Homo sapiens, UniProt P28223); assay: as §1; conditions: filed as antagonist
# [20] = biological target: 5-hydroxytryptamine receptor 2C (Homo sapiens) (UniProt P28335); assay: as §1; conditions: filed as antagonist
# [21] = biological target: T3, Bromodomain-containing protein 3; assay: TR-FRET assay (BRD3 BD1)
# Chain of D(2) dopamine receptor (P14416 whole entry): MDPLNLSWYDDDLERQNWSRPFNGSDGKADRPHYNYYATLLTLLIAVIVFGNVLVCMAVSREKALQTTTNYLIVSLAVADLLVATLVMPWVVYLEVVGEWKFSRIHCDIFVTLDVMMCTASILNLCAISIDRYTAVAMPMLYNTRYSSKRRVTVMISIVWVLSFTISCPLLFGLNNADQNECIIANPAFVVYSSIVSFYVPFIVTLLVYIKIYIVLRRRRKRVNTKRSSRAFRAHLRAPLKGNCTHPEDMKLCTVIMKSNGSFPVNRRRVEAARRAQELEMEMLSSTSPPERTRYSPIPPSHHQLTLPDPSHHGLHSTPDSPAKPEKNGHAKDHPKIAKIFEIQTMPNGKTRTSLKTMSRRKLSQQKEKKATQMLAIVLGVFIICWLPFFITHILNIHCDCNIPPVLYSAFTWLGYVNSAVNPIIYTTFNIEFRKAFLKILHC
smiles,measurement,setting,value
CC(=O)Nc1c(F)cc(C(=O)N[C@H]2CC[C@H](O)CC2)cc1O[C@@H](C)c1ccccc1 [GSK046],inhibition,D(2) dopamine receptor,25.8%
same,Kd,[1],30 µM
same,IC50,C-C motif chemokine 2,0.316 µM (active)
same,Kd,[2],30 µM
same,inhibition,[3],17.6%
same,Kd,[4],1.62 µM
same,Ki,[5],3.44 µM
same,inhibition,[6],20.1%
same,inhibition,[7],3.38%
same,Kd,[8],30 µM
same,Kd,[9],0.015 µM
same,inhibition,[10],39.1%
same,Kd,[11],30 µM
same,Kd,[12],0.036 µM
same,Kd,[13],30 µM
same,Kd,[14],30 µM
same,pIC50,[15],5
same,Kd,[16],0.047 µM
same,IC50,[17],> 25.1 µM
same,pEC50,[18],< 4
same,pIC50,[18],< 4
same,inhibition,D(1A) dopamine receptor,4.11%
same,fpKi,[19],< 4.6
same,fpKi,[20],< 4.6
same,IC50,[21],36.3 µM (not active)
